Tests used:
Assay in all cases: relative IC50 (inflection point of fitted viability curve, relative to fitted max inhibition); higher = less sensitive
Details in all cases: 72 h
[1] = tested on: IMC-1 (IL-2 20 ng/mL)
Description: (§1)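 Drug sensitivity and resistance testing: 5 concentrations over a 10,000-fold range, 72 h at 37 °C, viability by CellTiter-Glo normalised to DMSO and benzethonium chloride controls. IC50 is the inflection point of a logistic fit (min fixed at 0, max fitted), so it is relative to the fitted maximal inhibition. Kept only where fitted max inhibition is at least 50%.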

[2] = tested on: KHYG-1 (IL-2 2.5 ng/mL)
Description: as §1

[3] = tested on: YT (IL-2 2.5 ng/mL)
Description: as §1

[4] = tested on: normal primary NK cells, pool 1 (3 donors), resting (IL-2 0 ng/mL)
Description: as §1

[5] = tested on: DERL-7 (IL-2 2.5 ng/mL)
Description: as §1

[6] = tested on: KAI3 (IL-2 2.5 ng/mL)
Description: as §1

[7] = tested on: NK-92 (IL-2 2.5 ng/mL)
Description: as §1

[8] = tested on: NK-YS (IL-2 2.5 ng/mL)
Description: as §1

[9] = tested on: NKL (IL-2 2.5 ng/mL)
Description: as §1

[10] = tested on: SNK-6 (IL-2 2.5 ng/mL)
Description: as §1

[11] = tested on: normal primary NK cells, pool 2 (3 donors) (IL-2 2.5 ng/mL)
Description: as §1

[12] = tested on: normal primary NK cells, pool 3 (3 donors) (IL-2 2.5 ng/mL)
Description: as §1

[13] = tested on: normal primary NK cells, pool 1 (3 donors) (IL-2 2.5 ng/mL)
Description: as §1

SMILES	relative IC50 [1] [nM]	relative IC50 [2] [nM]	relative IC50 [3] [nM]	relative IC50 [4] [nM]	relative IC50 [5] [nM]	relative IC50 [6] [nM]	relative IC50 [7] [nM]	relative IC50 [8] [nM]	relative IC50 [9] [nM]	relative IC50 [10] [nM]	relative IC50 [11] [nM]	relative IC50 [12] [nM]	relative IC50 [13] [nM]
O=P1(N(CCCl)CCCl)NCCCO1 (centres undefined) [Cyclophosphamide]	> 40000	> 40000	> 40000	5790	–	–	–	–	–	–	–	–	–
Cn1cc(-c2ccc3nnc(C(F)(F)c4ccc5ncccc5c4)n3n2)cn1	–	–	–	> 10000	–	–	–	–	–	–	–	–	–
CC[C@@]1(O)C(=O)OCc2c1cc1n(c2=O)Cc2cc3ccccc3nc2-1 [Camptothecin]	14.2	4.95	18.4	–	9.21	0.88	5.92	3.56	1.47	3.1	547	278	–
C[C@@H](Nc1cc(F)cc(F)c1)c1cc(C(=O)N(C)C)cc2c(=O)cc(N3CCOCC3)oc12 [AZD-8186]	> 1000	–	–	–	–	–	–	–	> 1000	–	–	> 1000	–
COc1cc2/c(=N/c3ccc(Br)cc3F)nc[nH]c2cc1OCC1CCN(C)CC1 [Vandetanib]	–	–	–	–	–	–	–	–	–	–	–	> 1000	–
C[C@]12CC[C@@H]3c4ccc(OC(=O)N(CCCl)CCCl)cc4CC[C@H]3[C@@H]1CC[C@@H]2O [Estramustine]	> 10000	–	–	–	–	–	–	–	–	–	–	> 10000	–
Cc1cc(C)c(CNC(=O)c2cc(-c3ccc(CN4CCOCC4)cc3)cc3c2cnn3C2CCCC2)c(=O)[nH]1 [EPZ-5687]	> 10000	–	–	–	–	–	> 10000	–	> 10000	–	> 10000	> 10000	–
CC(=O)Nc1cccc(-n2c(=O)n(C3CC3)c(=O)c3c(Nc4ccc(I)cc4F)n(C)c(=O)c(C)c32)c1 [Trametinib]	> 250	4.89	–	–	–	–	> 250	–	2.51	–	–	> 250	–
COc1cc(C(=O)O)ccc1NC(=O)[C@@H]1N[C@@H](CC(C)(C)C)[C@](C#N)(c2ccc(Cl)cc2F)[C@H]1c1cccc(Cl)c1F [Idasanutlin]	–	–	–	–	–	–	–	–	–	–	197	265	–
COc1cc2c(Oc3ccc4[nH]c(C)cc4c3F)ncnc2cc1OCCCN1CCCC1 [Cediranib]	–	–	–	–	–	–	–	–	–	–	–	> 1000	–
N#Cc1ccc(COC[C@H]2O[C@@H](n3c(NCc4ccc(Cl)c(Cl)c4)nc4c(N)ncnc43)[C@H](O)[C@@H]2O)cc1	3860	1810	1710	–	–	–	–	1310	–	1150	–	> 10000	–
Nc1nc2[nH]cnc2c(=S)[nH]1 [Thioguanine]	1300	322	383	–	2350	1780	742	296	1440	938	1900	–	2100
Cc1ccccc1C(C(=O)NC1CCCCC1)N(C(=O)Cn1ccnc1C)c1cccc(F)c1 (centres undefined) [AGI-5198]	–	–	–	–	–	–	–	–	–	–	–	–	> 10000
C[C@@H]1CCN(C(=O)CC#N)C[C@@H]1N(C)c1ncnc2[nH]ccc12 [Tofacitinib]	616	41	336	–	99.5	42.3	141	101	33.1	78	95.5	204	75
CCN1CCN(Cc2ccc(Nc3ncc(F)c(-c4cc(F)c5nc(C)n(C(C)C)c5c4)n3)nc2)CC1 [Abemaciclib]	978	236	–	> 2500	130	–	–	446	–	–	743	–	–
CN1CCC(COc2cnc(-c3cccc(Cn4nc(-c5cccc(C#N)c5)ccc4=O)c3)nc2)CC1	> 1000	–	–	–	–	> 1000	–	> 1000	–	–	–	> 1000	–
CCn1c(=O)c(-c2cc[nH]n2)cc2c(C)nc(N)nc21 [Voxtalisib]	–	1640	1110	–	457	818	685	1340	880	3190	–	–	–
CNC(=O)c1cccc(-c2ccc3c(N4CCOC[C@@H]4C)nc(N4CCOC[C@@H]4C)nc3n2)c1 [AZD2014]	–	714	295	–	137	24.8	317	266	36.7	117	–	–	–
C=C1C[C@@H]2[C@H](CC[C@]3(C)C(=O)CC[C@@H]23)[C@@]2(C)C=CC(=O)C=C12 [Exemestane]	–	–	–	3290	–	–	–	–	–	–	–	–	–
O=C(Cc1ccc(-c2ccc(OCCN3CCOCC3)cc2)cn1)NCc1ccccc1 [KX2-391]	34.4	30.3	23	–	28.1	28.1	12.3	26.1	27.8	5.46	–	–	–
Cc1cnc(Nc2ccc(OCCN3CCCC3)cc2)nc1Nc1cccc(S(=O)(=O)NC(C)(C)C)c1 [Fedratinib]	929	–	–	–	–	–	–	–	–	–	462	479	–
O=C(Nc1cccc(Nc2ncc(Br)c(NCCc3cnc[nH]3)n2)c1)N1CCCC1 [BX-912]	735	507	1510	–	1060	474	1170	1850	1010	482	1170	1420	1270
Clc1ccc(C(c2ccccc2Cl)C(Cl)Cl)cc1 (centres undefined) [Mitotane]	> 10000	> 10000	> 10000	–	–	> 10000	> 10000	> 10000	> 10000	–	> 10000	–	–
COC1=CC(c2cc3ccccc3[nH]2)=N/C1=C\c1[nH]c(C)cc1C [Obatoclax]	–	–	–	1880	–	–	449	–	247	–	–	–	–
COc1cc2nccc(Oc3ccc(NC(=O)Nc4cc(C)on4)c(Cl)c3)c2cc1OC [Tivozanib]	–	1630	1490	1520	2780	–	319	1750	–	799	–	–	–
COc1cc(C(=O)O)ccc1NC(=O)[C@@H]1N[C@@H](CC(C)(C)C)[C@](C#N)(c2ccc(Cl)cc2F)[C@H]1c1cccc(Cl)c1F [RG7388]	–	3560	209	29.7	97	39.1	2120	86.3	2450	30.2	–	–	132
